Measured values reported in PubChem BioAssay (NCI).
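The concentration for 50% growth inhibition is given as GI50. TGI is the concentration that stops growth completely.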

Columns and labels:
Experiment in all cases: NCI-60 cell line screen, 384-well format
[1] = system: 786-0 renal
[2] = system: A549 NSCLC
[3] = system: ACHN renal
[4] = system: CAKI-1 renal
[5] = system: CCRF-CEM leukemia
[6] = system: DU-145 prostate
[7] = system: EKVX NSCLC
[8] = system: HCC-2998 colon
[9] = system: HCT-116 colon
[10] = system: HCT-15 colon
[11] = system: HL-60(TB) leukemia
[12] = system: HOP-62 NSCLC
[13] = system: HOP-92 NSCLC
[14] = system: HS 578T breast
[15] = system: HT29 colon
[16] = system: K-562 leukemia
[17] = system: KM12 colon
[18] = system: LOX IMVI melanoma
[19] = system: MALME-3M melanoma
[20] = system: MDA-MB-231 breast
[21] = system: MDA-MB-468 breast
[22] = system: MOLT-4 leukemia
[23] = system: NCI-H226 lung
[24] = system: NCI-H23 lung
[25] = system: NCI-H322M lung
[26] = system: NCI-H460 NSCLC
[27] = system: NCI/ADR-RES ovarian
[28] = system: OVCAR-3 ovarian
[29] = system: OVCAR-8 ovarian
[30] = system: PC-3 prostate
[31] = system: RXF 393 renal
[32] = system: SF-268 CNS
[33] = system: SF-295 CNS
[34] = system: SF-539 CNS
[35] = system: SK-MEL-2 melanoma
[36] = system: SK-MEL-28 melanoma
[37] = system: SK-MEL-5 melanoma
[38] = system: SK-OV-3 ovarian
[39] = system: SN12C renal
[40] = system: SNB-19 CNS
[41] = system: SNB-75 CNS
[42] = system: SR leukemia
[43] = system: SW-620 colon
[44] = system: T-47D breast
[45] = system: TK-10 renal
[46] = system: U251 glioblastoma
[47] = system: UACC-257 melanoma

SMILES: C=CC(=O)Nc1cc(C)ccc1Nc1nc(Nc2cc(OC)ncc2C)ncc1C(F)(F)F
- GI50 [1]: 853 nM
- TGI [1]: > 100000 nM
- GI50 [2]: 569 nM
- TGI [2]: 2050 nM
- GI50 [3]: 374 nM
- TGI [3]: 1820 nM
- GI50 [4]: 401 nM
- TGI [4]: 1440 nM
- GI50 [5]: 1710 nM
- TGI [5]: 3400 nM
- GI50 [6]: 865 nM
- TGI [6]: 3600 nM
- GI50 [7]: 300 nM
- TGI [7]: 1620 nM
- GI50 [8]: 123 nM
- TGI [8]: 376 nM
- GI50 [9]: 206 nM
- TGI [9]: 562 nM
- GI50 [10]: 857 nM
- TGI [10]: 9300 nM
- GI50 [11]: 136 nM
- TGI [11]: 1070 nM
- GI50 [12]: 725 nM
- TGI [12]: 2620 nM
- GI50 [13]: 282 nM
- TGI [13]: 700 nM
- GI50 [14]: 429 nM
- TGI [14]: 1850 nM
- GI50 [15]: 340 nM
- TGI [15]: 1520 nM
- GI50 [16]: 1520 nM
- TGI [16]: > 100000 nM
- GI50 [17]: 444 nM
- TGI [17]: > 100000 nM
- GI50 [18]: 169 nM
- TGI [18]: 423 nM
- GI50 [19]: 16.1 nM
- TGI [19]: 65.8 nM
- GI50 [20]: 283 nM
- TGI [20]: 1100 nM
- GI50 [21]: 1150 nM
- TGI [21]: 2570 nM
- GI50 [22]: 879 nM
- TGI [22]: 2150 nM
- GI50 [23]: 228 nM
- TGI [23]: 1810 nM
- GI50 [24]: 192 nM
- TGI [24]: 661 nM
- GI50 [25]: 570 nM
- TGI [25]: 3890 nM
- GI50 [26]: 698 nM
- TGI [26]: 2720 nM
- GI50 [27]: 1030 nM
- TGI [27]: 2590 nM
- GI50 [28]: 447 nM
- TGI [28]: 3030 nM
- GI50 [29]: 1120 nM
- TGI [29]: 4190 nM
- GI50 [30]: 1970 nM
- TGI [30]: 99700 nM
- GI50 [31]: 215 nM
- TGI [31]: 766 nM
- GI50 [32]: 1500 nM
- TGI [32]: 5940 nM
- GI50 [33]: 3610 nM
- TGI [33]: > 100000 nM
- GI50 [34]: 362 nM
- TGI [34]: 1550 nM
- GI50 [35]: 113 nM
- TGI [35]: 271 nM
- GI50 [36]: 86.6 nM
- TGI [36]: 387 nM
- GI50 [37]: 147 nM
- TGI [37]: 1970 nM
- GI50 [38]: 621 nM
- TGI [38]: 4210 nM
- GI50 [39]: 321 nM
- TGI [39]: 2180 nM
- GI50 [40]: 786 nM
- TGI [40]: 3430 nM
- GI50 [41]: 336 nM
- TGI [41]: 1290 nM
- GI50 [42]: 1790 nM
- TGI [42]: 3180 nM
- GI50 [43]: 405 nM
- TGI [43]: 1680 nM
- GI50 [44]: 813 nM
- TGI [44]: 5380 nM
- GI50 [45]: 328 nM
- TGI [45]: 884 nM
- GI50 [46]: 951 nM
- TGI [46]: 2560 nM
- GI50 [47]: 117 nM
- TGI [47]: 390 nM
